# Experimental data as given in patent US11382918B2, “Methods for treating Huntington's Disease” (PTC Therapeutics, Inc., priority 2017, dated 2022).
# Test system: Endogenous Huntingtin Protein (HTT)
# Experiment: Endogenous Huntingtin Protein Assay (ELISA-based MSD electrochemiluminescence)
# Assay type: cell-based
# Details: Table 1
# How it was run: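 MSD electrochemiluminescence sandwich ELISA for endogenous HTT: sample lysates captured overnight at 4 °C on MW1 (expanded polyglutamine) or MAB2166 antibody. Detection used rabbit monoclonal #5656S, then goat anti-rabbit SULFO-TAG antibody, each 1 h at room temperature.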
row,Compound,IC50 [nM]
1,"Cn1ncc2cc(-c3cc(=O)n4cc(C5=CCNCC5)ncc4n3)ccc21 [compound 505, 2-(1-methyl-1H-indazol-5-yl)-7-(1,2,3,6-tetrahydropyridin-4-yl)-4H-pyrazino[1,2-a]pyrimidin-4-one]",3000 to 33000
2,"CN1CC=C(c2cn3c(=O)cc(-c4ccc5c(cnn5C)c4)nc3cn2)CC1 [compound 506, 2-(1-methyl-1H-indazol-5-yl)-7-(1-methyl-1,2,3,6-tetrahydropyridin-4-yl)-4H-pyrazino[1,2-a]pyrimidin-4-one]",3000 to 33000
3,"CCN1CC=C(c2cn3c(=O)cc(-c4ccc5c(cnn5C)c4)nc3cn2)CC1 [compound 507, 7-(1-ethyl-1,2,3,6-tetrahydropyridin-4-yl)-2-(1-methyl-1H-indazol-5-yl)-4H-pyrazino[1,2-a]pyrimidin-4-one]",3000 to 33000
4,"Cc1cn2cc(-c3cc(=O)n4cc(C5CCNCC5)ccc4n3)cc(Cl)c2n1 [compound 516, 2-(8-chloro-2-methylimidazo[1,2-a]pyridin-6-yl)-7-(piperidin-4-yl)-4H-pyrido[1,2-a]pyrimidin-4-one]",< 100
5,"Cc1cn2nc(-c3cc(=O)n4cc(N5CCN(CCO)CC5)ccc4n3)cc2c(C)n1 [compound 531, 2-(4,6-dimethylpyrazolo[1,5-a]pyrazin-2-yl)-7-[4-(2-hydroxyethyl)piperazin-1-yl]-4H-]",3000 to 33000
6,"Cc1cn2cc(-c3cc(=O)n4cc(N5CCN(CCOCCO)[C@@H](C)C5)ccc4n3)cc(F)c2n1 [compound 540, 2-(8-fluoro-2-methylimidazo[1,2-a]pyridin-6-yl)-7-{(3S)-4-[2-(2-hydroxyethoxy)ethyl]-3-methylpiperazin-1-yl}-4H-pyrido[1,2-a]pyrimidin-4-one]",1000 to 3000
7,"CCc1nc(C)cn2nc(-c3cc(=O)n4cc(N5CCNCC5)ccc4n3)cc12 [compound 546, 2-(4-ethyl-6-methylpyrazolo[1,5-a]pyrazin-2-yl)-7-(piperazin-1-yl)-4H-pyrido[1,2-a]pyrimidin-4-one]",1000 to 3000
8,"CCc1nc(C)cn2nc(-c3cc(=O)n4cc(N5CCN(CCO)CC5)ccc4n3)cc12 [compound 549, 2-(4-ethyl-6-methylpyrazolo[1,5-a]pyrazin-2-yl)-7-[4-(2-hydroxyethyl)piperazin-1-yl]-4H-pyrido[1,2-a]pyrimidin-4-one]",3000 to 33000
9,"CCc1nc(C)cn2nc(-c3cc(=O)n4cc(N5CCC(N(C)C)CC5)ccc4n3)cc12 [compound 550, 7-[4-(dimethylamino)piperidin-1-yl]-2-(4-ethyl-6-methylpyrazolo[1,5-a]pyrazin-2-yl)-4H-pyrido[1,2-a]pyrimidin-4-one]",3000 to 33000
10,"C[C@H]1CN(c2ccc3nc(-c4ccc5c(cnn5C)c4)cc(=O)n3c2)CCN1 [compound 553, 2-(1-methyl-1H-indazol-5-yl)-7-[(3S)-3-methylpiperazin-1-yl]-4H-pyrido[1,2-a]pyrimidin-4-one]",3000 to 33000
11,"Cc1cn2ccc(-c3cc(=O)n4cc(C5CCNCC5)ccc4n3)cc2n1 [compound 556, 2-(2-methylimidazo[1,2-a]pyridin-7-yl)-7-(piperidin-4-yl)-4H-pyrido[1,2-a]pyrimidin-4-one]",3000 to 33000
12,"Cc1cn2ccc(-c3cc(=O)n4cc(N5CCN(C)CC5)ccc4n3)cc2n1 [compound 557, 2-(2-methylimidazo[1,2-a]pyridin-7-yl)-7-(4-methylpiperazin-1-yl)-4H-pyrido[1,2-a]pyrimidin-4-one]",3000 to 33000
13,"Cn1cc2cc(-c3cc(=O)n4cc(C5CCNCC5)ncc4n3)ccc2n1 [compound 566, 2-(2-methyl-2H-indazol-5-yl)-7-(piperidin-4-yl)-4H-pyrazino[1,2-a]pyrimidin-4-one]",100 to 500
14,"CCN1CCC(c2cn3c(=O)cc(-c4ccc5nn(C)cc5c4)nc3cn2)CC1 [compound 568, 7-(1-ethylpiperidin-4-yl)-2-(2-methyl-2H-indazol-5-yl)-4H-pyrazino[1,2-a]pyrimidin-4-one]",1000 to 3000
15,"CN1CCC(c2ccc3nc(-c4ccc5nn(C)cc5c4)cc(=O)n3c2)CC1 [compound 578, 2-(2-methyl-2H-indazol-5-yl)-7-(1-methylpiperidin-4-yl)-4H-pyrido[1,2-a]pyrimidin-4-one]",3000 to 33000
16,"Cc1cn2cc(-c3cc(=O)n4cc(C5CCN(C)CC5)ncc4n3)ccc2n1 [compound 579, 2-(2-methylimidazo[1,2-a]pyridin-6-yl)-7-(1-methylpiperidin-4-yl)-4H-pyrazino[1,2-a]pyrimidin-4-one]",3000 to 33000
17,"CCN1CCC(c2cn3c(=O)cc(-c4ccc5nc(C)cn5c4)nc3cn2)CC1 [compound 580, 7-(1-ethylpiperidin-4-yl)-2-(2-methylimidazo[1,2-a]pyridin-6-yl)-4H-pyrazino[1,2-a]pyrimidin-4-one]",3000 to 33000
18,"Cc1cn2cc(-c3cc(=O)n4cc(C5CCN(CCO)CC5)ncc4n3)ccc2n1 [compound 581, 7-[1-(2-hydroxyethyl)piperidin-4-yl]-2-(2-methylimidazo[1,2-a]pyridin-6-yl)-4H-pyrazino[1,2-a]pyrimidin-4-one]",1000 to 3000

# Other lines, results leading:
row,IC50 [nM],Compound
1,3000 to 33000,"Cc1cn2nc(-c3cc(=O)n4cc(C5CCN(CCO)CC5)ccc4n3)cc2c(C)n1 [compound 530, 2-(4,6-dimethylpyrazolo[1,5-a]pyrazin-2-yl)-7-[1-(2-hydroxyethyl)piperidin-4-yl]-4H-pyrido[1,2-a]pyrimidin-4-one]"
2,1000 to 3000,"Cc1cn2nc(-c3cc(=O)n4cc(N5CCN(CCO)[C@H](C)C5)ccc4n3)cc2c(C)n1 [compound 532, 2-(4,6-dimethylpyrazolo[1,5-a]pyrazin-2-yl)-7-[(3R)-4-(2-hydroxyethyl)-3-methylpiperazin-1-yl]-4H-pyrido[1,2-a]pyrimidin-4-one]"
3,3000 to 33000,"C[C@@H]1CN(c2ccc3nc(-c4ccc5c(cnn5C)c4)cc(=O)n3c2)CCN1 [compound 545, 2-(1-methyl-1H-indazol-5-yl)-7-[(3R)-3-methylpiperazin-1-yl]-4H-pyrido[1,2-a]pyrimidin-4-one]"
4,3000 to 33000,"C[C@@H]1CN(c2ccc3nc(-c4ccc5c(cnn5C)c4)cc(=O)n3c2)C[C@H](C)N1 [compound 552, 7-[(3R,5S)-3,5-dimethylpiperazin-1-yl]-2-(1-methyl-1H-indazol-5-yl)-4H-pyrido[1,2-a]pyrimidin-4-one]"
5,3000 to 33000,"Cc1cn2ccc(-c3cc(=O)n4cc(N5CCNCC5)ccc4n3)cc2n1 [compound 555, 2-(2-methylimidazo[1,2-a]pyridin-7-yl)-7-(piperazin-1-yl)-4H-pyrido[1,2-a]pyrimidin-4-one]"
6,3000 to 33000,"CN1CCC(c2cn3c(=O)cc(-c4ccc5nn(C)cc5c4)nc3cn2)CC1 [compound 567, 2-(2-methyl-2H-indazol-5-yl)-7-(1-methylpiperidin-4-yl)-4H-pyrazino[1,2-a]pyrimidin-4-one]"
7,1000 to 3000,"Cn1cc2cc(-c3cc(=O)n4cc(C5CCN(CCO)CC5)ncc4n3)ccc2n1 [compound 569, 7-[1-(2-hydroxyethyl)piperidin-4-yl]-2-(2-methyl-2H-indazol-5-yl)-4H-pyrazino[1,2-a]pyrimidin-4-one]"
8,3000 to 33000,"Cc1cn2nc(-c3cc(=O)n4cc(N5CCC(N(C)CCO)CC5)cc(C)c4n3)cc2c(C)n1 [compound 582, 2-(4,6-dimethylpyrazolo[1,5-a]pyrazin-2-yl)-7-{4-[(2-hydroxyethyl)(methyl)amino]piperidin-1-yl}-9-methyl-4H-pyrido[1,2-a]pyrimidin-4-one]"
